Source: US11497796B2, “Agents directed against a cis RGMa/neogenin interaction or lipid rafts and use of the same in methods of treatment” (UNIVERSITY HEALTH NETWORK, priority 2013, dated 2022)

B1: 4Ig: four immunoglobulin-like domains of Neogenin, amino acids 1 to 383 of Accession No. AAC59662 (SEQ ID NO:1) (protein, listed as Gallus gallus)
chain: RSGPRSPLTGSVVRTFTPFYFLVEPMDILSVRGASVIMNCSSYCETPPKIEWKKDGTLLNLVSDDRRQLLPDGSLLINSVVHSKHNKPDEGYYQCVATVESLGSIVSRTAKLTVAGLPRFTSQPELSSVYKGNSAILNCEVNVDLAPFVRWEQDRQPLSLDDRVFKLPSGALLIGNATDTDGGFYRCVIESGGTPKYSEEAELKILPDPEEPQSLVFVRQPSSLTKVTGQNAVFPCVAGGFPTPYVRWTKNGEELITEDSERFALRAGGSLLISDVTEEDVGTYTCIADNENETIEAQAELAVQVPPEFLKRPANIYAHESMDIVFECEVTGKPTPTVKWVKNGDVVIPSDYFKIVKEHNLQVLGLVKSDEGFYQCIAENDVGNAQAGAQLIILDLDVAIPTLPPTSLTSATNDHLAPATTGPLPTAPRDVVATLVSTRFIRLTWRTPVSDPQGDNLTYSIFYTKEGINRERVENTSRPGETQVMIQNLMPETVYVFRVVAQNKHGHGESSAPLKVATQPEVQLPGPAPNIRAYAGSPTSVTVTWETPLSGNGEIQNYKLYYMEKGQDSEQDVDVAGLSYTITGLKKYTEYSFRVVAYNKHGPGVSTQDVVVRTLSDVPSAAPQNLTLEARNSKSIMLHWQPPPAGTHSGQITGYKIRYRKVSRKSDVTESVGGTQLFQLIEGLERGTEYNFRIAAMTVNGTGPATDWVSAETFESDLDESRVPEVPSSLHVRPLVTSIVVSWTPPENQNIVVRGYAIGYGIGSPHAQTIKVDYKQRYYTIENLDPSSHYVITLKAFNNVGEGIPLYESAVTRPHSDTSEVDLFVINAPYTPVPDPSPMMPPVGVQASILSHDTIRITWADNSLPKNQKITDARYYTVRWKTNIPANTKYKTANATTLSYLVTGLKPNTLYEFSVMVTKGRRSSTWSMTAHGTTFELVPTSPPKDVTVVSKEGKPRTIIVNWQPPSEANGKITGYIIYYSTDVNAEIHDWVIEPVVGNRLTHQIQELTLDTPYYFKIQARNSKGMGPMSEAVQFRTPKAESSDKMPNDQASGSAGKGSRPVDVGPDYKPPLSGSNSPHGSPTSPLDSNMLLVIIVSVGVITIVIVVIVAVFCTRRTTSHQKKKRAACKSVNGSHKYKGNSKDVKPPDLWIHHERLELKPIDKSPDPNPIMTDTPIPRNSQDITPVDNSMDSNIHQRRNSYRGHESEDSMSTLAGRRGMRPKMMMPFDSQPPQPVISAHPIHSLDNPHHHFHSGSLASPTRSYLHHQVSPWPVGTSMSHSDRANSTESVRNTPSSDTMPASSSQPCADHQDPDSSSGAYLGSAQEEDAAQSLPTAHVRPSHPLKSFAVPAVPAAGSAYDPTLPSTPLLTQQAPSHPVHSVKTASIGTLGRTRPPMPVVVPSAPDVQETTRMLEDSESSYEPDELTKEMAHLEGLMKDLNAITTA
modifications: Neogenin - Accession No. AAC59662

Tests used:
[1] = test system: Neogenin association with lipid rafts; assay: Lipid raft fractionation of injected chick brain/tecta; type: in vivo; settings: injected into chick brain/optic tectum one day before fractionation
Experimental: Injected chick E8 tecta (4Ig, 2 mg/mL; N-raft, 1 mg/mL; methyl-β-cyclodextrin (10 mM)) or transfected cells (Neogenin and RGMa) were collected 24 hours later, lysed and placed at the bottom of a sucrose density gradient (0.9-0.8-0.75-0.7-0.6-0.5-0.4-0.2 M) and centrifuged at 38,000 rpm for 16 hours in SW 60 rotor (Beckman Instruments Inc.).
Proteins (4Ig, 2 mg/ml; N-Raft, 1 mg/mL; RGMaΔ, 5 mg/ml; methyl-β-cyclodextrin (10 mM)) were injected in chick E8 optic tectum and tecta were collected 24 hrs later. HEK cells were transfected with Neogenin and different RGMa constructs and collected 48 hrs later. For treatment with RGMaΔ, Neogenin transfected cells were treated with RGMaΔ (2 mg/ml) and BMP-2 (100 nM) and further incubated for 1 hr at 37° C. Tecta (3 tecta for each set of experiment) and/or cells were solubilized in chilled buffer (25 mM Tris-HCl, pH 7.4, 150 mM NaCl, 5 mM EDTA and protease inhibitor cocktail) and passed through G25 and G30 needles, respectively, and centrifuged at 800 g for 10 min at 4° C. Cold Triton X-100 was added to the post nuclear supernatant to a final concentration of 1% and incubated on ice for 1 hour. 2× volume of 2M sucrose was added and sample placed at the bottom of a sucrose density gradient (0.9-0.8-0.75-0.7-0.6-0.5-0.4-0.2 M) and centrifuged at 38,000 rpm for 16 hours in SW 60 rotor (Beckman Instruments Inc.). 400 μl fractions were collected from top (top numbered 1 and next eight fractions numbered consequently) and stored at −80° C.
As such, it was examined if overexpressing recombinant 4Ig and N-Raft competed with the endogenous 4Ig and N-Raft domains to displace Neogenin from the lipid raft fractions to the non-lipid raft fractions. Specifically, N-Raft, 4Ig-domain, or a control peptide, which was amino acid residues 50-99 of RGMa (also referred to herein as “N-RGMa^50-99”), was injected into the optic tectum at E8. The tecta were collected a day later for fractionation-analyses.

[2] = test system: temporal retinal explants (axonal outgrowth); assay: Retinal explants outgrowth assay; type: cell-based, chick; settings: for outgrowth of retinal explants grown on RGMa proteins, peptide added to medium: 5 μg/ml in the medium
Experimental: Poly-L-Lysine (SIGMA; 10 μg/ml) coated glass coverslips were treated with Laminin (Invitrogen; 10 μg/ml) and RGMa proteins (5 μg/ml) and incubated for 3 hours at room temperature. Temporal retinal explants were cultured on protein-coated surfaces for 18 hours. To disrupt the lipid rafts, explants were pretreated with 10 mM methyl-β-cyclodextrin (MβCD) for 12 minutes or 2 U/ml cholesterol oxidase (CO) for 1 hour at 37° C. Explants were then fixed with 4% paraformaldehyde (PFA) and stained with Alexa488-phalloidin. Fiber length was quantified using Image Pro 5.0. For immunolocalization, explants were treated with Cholera Toxin B-FITC (C1655; Sigma; 10 mg/mL) and patched, fixed and stained with Neogenin antibody. Retinal ganglion cells (RGCs) were electroporated with RGMa-His and cultured for 18 hours. The cells were fixed and stained with Neogenin and His-tag antibodies.
Retinal explants outgrowth assay. Poly-L-Lysine (PLL; SIGMA; 10 μg/ml) coated glass coverslips were treated with Laminin (10 μg/ml; Invitrogen) and RGMa proteins (5 μg) and incubated for 3 hrs at room temperature. PLL treated coverslips were coated with myelin overnight (6 μg/cm2), followed by coating with Laminin. Temporal retinal explants were cultured on either myelin or protein-coated surfaces in DMEM F-12 media (2% chick serum, 10% FBS) for 18 h. To disrupt rafts, explants were pre-treated with 10 mM MβCD for 12 min or 2 U/ml CO for 1 h at 37° C., washed, and cultured on protein coated coverslips. Explants were then fixed with 4% PFA and stained with Alexa488-fluor-phalloidin (1:50; Molecular Probes). Fiber length was quantified using Image Pro 5.0.
Statistical analysis of retinal outgrowth assays was performed using Student's two-tail t-test using Excel (Microsoft). Results were expressed as the mean±SEM (n=at least 3 independent experiments; 2 duplicates per independent experiment, >10 explants per duplicate).

[3] = test system: retinal ganglion cells (RGCs); assay: RGC survival in vivo 14 days after axotomy; design: species or system rat; settings: for increase of RGC survival vs. control / RGC survival: injected intra-ocularly, 14 days after axotomy; for RGC survival: control 361±19

Molecule | Neogenin localization in membrane fractions [1] | outgrowth of retinal explants grown on RGMa proteins, peptide added to medium [2] | effect on axonal outgrowth when provided as growth substrate (in trans) ([2]; protein as substrate) | increase of RGC survival vs. control [3] | RGC survival [3] | axonal outgrowth on RGMa proteins after lipid raft disruption ([2]; 10 mM MβCD or 2 U/ml of CO) | increase of RGC survival ([3]; systemic application (intraperitoneal, IP))
N-Raft: peptide spanning amino acids 28-73 of RGMa (SEQ ID NO:2) (SPCKILKCNSEFWAATSGSHHLGAEETPEFCTALRAYAHCTRRTAR; N-Raft - amino acids 28-73 of RGMa) | relocalized from the lipid raft fractions to the heavy fractions | restored outgrowth | no effect | about 2 fold | 652±24 cells/mm^2 | – | –
methyl-β-cyclodextrin [MβCD, reference compound] | recovered in the non-lipid raft fraction | – | – | – | – | restored to control values | about 2 fold
B1 | relocalized from the lipid raft fractions to the heavy fractions | restored outgrowth | – | about 2 fold | 682±21 cells/mm^2 | – | –
